{"source": "patent EP2329817A1", "about": "“Retinoic acid receptor antagonists, miR-10a inhibitors and inhibitors of HOXB1 or HOXB3 repressors for treating pancreatic cancer” (Ernst-Moritz-Arndt-Universität Greifswald, priority 2009, dated 2011)", "tested_on": "xenotransplanted primary human tumours", "test": "Zebrafish embryo xenotransplantation of pretreated fragments of resected primary human tumours", "type": "in vivo", "conditions": "for Migration <5 / Migration 5 to 20 / Migration >20 / total >5 / total >5, final line, number: number of embryos; for total >5, final line, per cent / total >5, final line, number: whole experiment; for presence of micro-metastases at 3dpl, Migration 5 to 20: number in square brackets", "protocol": "Zebrafish (Danio rerio) (Tuebingen line, AIB strain (Albinos) and Tg (fli1:eGFP) were handled in compliance with local animal care regulations and standard protocols of the Netherlands and Germany. Fish were kept at 28°C in aquaria with day/night light cycles (10 h dark versus 14 h light periods). The developing embryos were kept in an incubator at constant temperatures.\nCells were stained with CM-Dil (red fluorescence) at a 1:1000 dilution according to the manufacturers protocol (Vybrant, Invitrogen). Cells were suspended in 67% DPBS for injection into embryos. 2dpf zebrafish embryos were dechorionated and tranquilized with tricaine (Sigma). An injection needle (15µm diameter) with a manual injector (Eppendorf; Celltram Vario) was used to inject ∼200 cells into the yolk sac of 2dpf zebrafish embryos. On average 80 embryos were injected for each treatment and embryos with detectable cell scatter 2 h after the transfer (and therefore presumably due to the transfer procedure) were excluded from further analysis. Presence of cells was checked after 2 h incubation at 31°C and embryos were subsequently kept at 35°C. We defined metastasis based on the number of fluorescent cells that were detected outside the yolk sac 2 days after the transfer. Presence of 5 or more cells was considered \"metastasised\" and percentages of metastasised fish in each experiment were counted. The occurence of micro-metastasis is indicated by cell clusters of ≥4 cells presumably originating from cell division. PaTu-S cells and ASPC1 cells were transfected ON with indicated concentrations of miR-10a siRNA in the presence of ICA-Fectin TM442 (Eurogentec, Belgium). Whole cell lysates were prepared 36h post-transfection and 40 µg of total lysates were separated on 7.5% PAA-gels and blotted with anti E-cadherin, α-catenin, β-catenin (all mAbs, Transduction Labs) and actin antibodies (mAb Sigma-Aldrich, Germany).\nHuman resection specimens were obtained at the Universitätsklinikum Greifswald according to local ethical guidelines and after obtaining informed patient consent. Tumour tissue was cut into small pieces using a scalpel blade. Tissue fragments were then washed with 67% DPBS and stained with 1:500 CM-Dil. Stained tissue fragments of approximal ^1/5 to ½ the size of the yolk sac were transferred with a glass transplantation needle into the yolk. After 2 h at 31 °C the embryos were checked that the yolk had sealed itself and the embryos were incubated at 35°C for the remainder of the experiment.\nSmall tissue fragments from two well differentiated ductal adenocarcinoma resection specimen of the Pancreas head (2 and 3) were incubated with miR-10a Morpholino or RARα inhibitor and, following staining with carbocyanine dye (CM-Dil), transplanted into zebrafish embryos (Controls: DMSO and control-Morpholino). Formation of micrometastases in the fish was assessed at 3 dpi by analysis of present cell aggregates (including daughter cells) outside the yolk sac. […] Tumour grading and classification was done according to histopathological examination.", "data": [{"smiles": "CCCCCCCOc1cc2c(cc1/C(C)=C/c1ccc(C(=O)O)cc1)C(C)(C)CCS2(=O)=O", "note": "[Ro-41-5253, Benzoic acid, 4-(2-(7-(heptyloxy)-3,4-dihydro-4,4-dimethyl-2H-1-benzothiopyran-6-yl)-1-propenyl)-, S,S-dioxide, (E)]", "values": [{"measurement": "Migration <5", "setting": "Patient 1 (adenocarcinoma of the ampulla vateri, G3), Day 1", "value": 1}, {"measurement": "Migration 5 to 20", "setting": "Patient 1, Day 1", "value": 2}, {"measurement": "Migration >20", "setting": "Patient 1, Day 1", "value": 0}, {"measurement": "total >5", "setting": "Patient 1, Day 1", "value": 2}, {"measurement": "Migration 5 to 20", "setting": "Patient 1, Day 2", "value": 2}, {"measurement": "Migration <5", "setting": "Patient 1, Day 2", "value": 0}, {"measurement": "Migration >20", "setting": "Patient 1, Day 2", "value": 0}, {"measurement": "total >5", "setting": "Patient 1, Day 2", "value": 2}, {"measurement": "Migration 5 to 20", "setting": "Patient 1, Day 3", "value": 1}, {"measurement": "Migration <5", "setting": "Patient 1, Day 3", "value": 0}, {"measurement": "Migration >20", "setting": "Patient 1, Day 3", "value": 0}, {"measurement": "total >5", "setting": "Patient 1, Day 3", "value": 2}, {"measurement": "total >5, final line, per cent", "setting": "Patient 1", "value": 3.1, "unit": "%"}, {"measurement": "total >5, final line, number", "setting": "Patient 1", "value": 2}, {"measurement": "Migration <5", "setting": "Patient 2 (well-differentiated adenocarcinoma of the pancreas, G2), Day 1", "value": 1}, {"measurement": "Migration 5 to 20", "setting": "Patient 2, Day 1", "value": 3}, {"measurement": "Migration >20", "setting": "Patient 2, Day 1", "value": 0}, {"measurement": "total >5", "setting": "Patient 2, Day 1", "value": 3}, {"measurement": "Migration 5 to 20", "setting": "Patient 2, Day 2", "value": 2}, {"measurement": "Migration <5", "setting": "Patient 2, Day 2", "value": 1}, {"measurement": "Migration >20", "setting": "Patient 2, Day 2", "value": 0}, {"measurement": "total >5", "setting": "Patient 2, Day 2", "value": 2}, {"measurement": "Migration 5 to 20", "setting": "Patient 2, Day 3", "value": 1}, {"measurement": "Migration <5", "setting": "Patient 2, Day 3", "value": 0}, {"measurement": "Migration >20", "setting": "Patient 2, Day 3", "value": 0}, {"measurement": "total >5", "setting": "Patient 2, Day 3", "value": 1}, {"measurement": "total >5, final line, per cent", "setting": "Patient 2", "value": 4.3, "unit": "%"}, {"measurement": "total >5, final line, number", "setting": "Patient 2", "value": 3}, {"measurement": "Migration <5", "setting": "Patient 3 (well-differentiated adenocarcinoma of the pancreas, G2), Day 1", "value": 0}, {"measurement": "Migration 5 to 20", "setting": "Patient 3, Day 1", "value": 3}, {"measurement": "Migration >20", "setting": "Patient 3, Day 1", "value": 0}, {"measurement": "total >5", "setting": "Patient 3, Day 1", "value": 3}, {"measurement": "Migration 5 to 20", "setting": "Patient 3, Day 2", "value": 3}, {"measurement": "Migration <5", "setting": "Patient 3, Day 2", "value": 0}, {"measurement": "Migration >20", "setting": "Patient 3, Day 2", "value": 0}, {"measurement": "total >5", "setting": "Patient 3, Day 2", "value": 3}, {"measurement": "Migration 5 to 20", "setting": "Patient 3, Day 3", "value": 3}, {"measurement": "Migration <5", "setting": "Patient 3, Day 3", "value": 0}, {"measurement": "Migration >20", "setting": "Patient 3, Day 3", "value": 0}, {"measurement": "total >5", "setting": "Patient 3, Day 3", "value": 3}, {"measurement": "total >5, final line, per cent", "setting": "Patient 3", "value": 4.5, "unit": "%"}, {"measurement": "total >5, final line, number", "setting": "Patient 3", "value": 3}, {"measurement": "total >5 [%]", "setting": "Table 2, Patient 1", "value": 3.1, "unit": "%"}, {"measurement": "presence of micro-metastases at 3dpl, Migration 5 to 20", "setting": "Table 2, Patient 1", "value": 0}, {"measurement": "Migration 5 to 20", "setting": "Table 2, Patient 1", "value": 2}, {"measurement": "Migration <5", "setting": "Table 2, Patient 1", "value": 0}, {"measurement": "Migration >20", "setting": "Table 2, Patient 1", "value": 0}, {"measurement": "total >5 [%]", "setting": "Table 2, Patient 2", "value": 4.3, "unit": "% 4.4x10^-5"}, {"measurement": "presence of micro-metastases at 3dpl, Migration 5 to 20", "setting": "Table 2, Patient 2", "value": 0}, {"measurement": "Migration 5 to 20", "setting": "Table 2, Patient 2", "value": 3}, {"measurement": "Migration <5", "setting": "Table 2, Patient 2", "value": 1}, {"measurement": "Migration >20", "setting": "Table 2, Patient 2", "value": 0}, {"measurement": "total >5 [%]", "setting": "Table 2, Patient 3", "value": 4.5, "unit": "%"}, {"measurement": "presence of micro-metastases at 3dpl, Migration 5 to 20", "setting": "Table 2, Patient 3", "value": 0}, {"measurement": "Migration 5 to 20", "setting": "Table 2, Patient 3", "value": 3}, {"measurement": "Migration <5", "setting": "Table 2, Patient 3", "value": 0}, {"measurement": "Migration >20", "setting": "Table 2, Patient 3", "value": 0}, {"measurement": "reduction of invasiveness and metastatic behaviour", "setting": "compared to the DMSO treated control tissue of the same tumour specimen", "value": "> 95", "unit": "%"}, {"measurement": "metastatic behavior of treated specimen", "setting": "p< 0.001, student t-test", "value": "significant decrease"}]}]}
